How the values were obtained:
[1] = system: CT26.WT mouse colon carcinoma cells; assay: Compound 1 and anti-PD-1 in the mouse CT26.WT xenograft model; format: in vivo
Experimental: Animals: Female Balb/c Mice, 8 weeks old, fed a high fat diet
CT26.WT cells were collected from flasks and washed once in RPMI 1640 with no additives. […] Mice were grouped once tumors were palpable on day 7 or day 8 and randomized by body weight. Treatment started with antibody and Compound 1 was begun immediately.
Animals were monitored until the dosing commenced and then were measured twice a week during dosing until tumor volume reached protocol limit or ulceration was too severe. Tumor tissue and blood/plasma were collected at the end of the study.

[2] = system: mouse xenograft tumor models; assay: Antitumor activity in mouse xenograft tumor models; format: in vivo; details: oral or intravenous administration
A20 syngeneic cells = assay: Compound 1 and anti-PD-1 in the A20 mouse xenograft model; format: in vivo
Text: Animals: Female Balb/c Mice, 4-5 weeks old, fed a regular diet
A20 syngeneic cells were collected from flasks and washed once in RPMI 1640 with no additives. […] Animals were implanted with 2×10^5 cells in the right flank. Dosing commenced when tumors were greater than 100 mm^3 (around day 13) and dosing continued for 21 days or until the tumors reached the limit of 2000 mm^3.
Animals started dosing around day 13 when tumors are fully palpable and measured. Dosing continued until tumors begin to show ulceration that requires sacrifice. Tumors were collected before extensive necrosis to run ELISA and Flow analysis.

[3] = Oral bioavailability in animal models; format: in vivo
[4] = Genotoxicity testing using the Ames test
tumor tissue = assay: Tumor uptake and pharmacodynamics in xenograft tumor bearing mice; format: in vivo, mouse; details: oral or intravenous dosing
[5] = system: HDACs (HeLa cell nuclear extracts); assay: HDAC activity assay, Biomol Color de Lys system; format: biochemical; details: 25° C. for 1 hour
Experimental: HDAC inhibitory activity was assessed using the Biomol Color de Lys system (AK-500, Biomol, Plymouth Meeting, PA). Briefly, HeLa cell nuclear extracts were used as a source of HDACs. Different concentrations of test compounds were serially diluted in dimethylsulfoxide (DMSO) and added to HeLa cell nuclear extracts in the presence of a colorimetric artificial substrate. Final assay condition contained 50 mM Tris/C1, pH 8.0, 137 mM NaCl, 2.7 mM KCl and 1 mM MgCl2. Reactions were carried in room temperature (25° C.) for 1 hour before addition of developer for termination. Relative enzyme activity was measured in the WALLAC Victor II 1420 microplate reader as fluorescence intensity (excitation: 350-380 nm; emission: 440-460 nm). Data were analyzed using GraphPad Prism (v4.0a) with a sigmoidal dose response curve fitting for IC50 calculation.

[6] = system: a variety of cancer cell lines; assay: Antiproliferative activity in vitro; format: cell-based

For `COc1ccc(-c2nc(N3CCOCC3)c3sc(CN(C)c4ncc(C(=O)NO)cn4)cc3n2)cn1` [Compound 1, N-Hydroxy-2-(((2-(6-methoxypyridin-3-yl)-4-morpholinothieno[3,2-d]pyrimidin-6-yl)methyl)(methyl)amino)pyrimidine-5-carboxamide], the “inhibition of tumor growth” value ([1]; CT26.WT model, Compound 1 50 mg/kg, anti-PD-1 100 ug/mouse) was “only small inhibition of tumor growth”, the “TGI %* (Day 15)” value ([1]; CT26.WT, female Balb/c mice, Day 15, relative to Vehicle (Cmp 1) group, Cpd 1 50 mg/kg PO 5+2−, mAb 100 μg IP BIW) was 3% and the antitumor activity [2] was “substantial antitumor activity”. The “TGI %* (Day 13)” value (A20 syngeneic cells; A20, female Balb/c mice, Day 13, relative to Vehicle (Cmp 1) + isotype group, Cpd 1 100 mg/kg PO 5+2−, mAb 100 μg BIW) was 60%, the “tumor growth inhibition” value (A20 syngeneic cells; A20 model, Compound 1 100 mg/kg, anti-PD-1 100 ug/mouse) was “significant tumor growth inhibition” and the oral bioavailability [3] was “significant oral bioavailability”. For the same compound, the “safety profile (genotoxicity, Ames test)” value [4] was “favorable safety profile”, the “pharmacodynamic activity in tumor tissue” value (tumor tissue) was “pharmacodynamic activity in tumor tissue” and the “uptake by the tumor tissue” value (tumor tissue) was “significant uptake by the tumor tissue”. For the same compound, the IC50 [5] was < 100 nM and the antiproliferative activity [6] was “potent antiproliferative activity”.

Reference: patent publication US12403142B2, “Combination therapy with a phosphoinositide 3-kinase inhibitor with a zinc binding moiety” (Curis, Inc., priority 2018, dated 2025)
